Data: PubChem BioAssay (NCI)
“And” between values parts separate entries of the source, which are not always exact repeats. Equal values may be shown once.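 A five-concentration, 48-hour dose response in 96-well plates underlies each endpoint, interpolated linearly between surrounding concentrations. GI50 marks 50% less growth. The concentration for full growth arrest is given as TGI.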

Tests used:
Assay in all cases: inhibition of tumour cell growth, NCI panel, 48 h
[1] = system: A549 NSCLC
[2] = system: UO-31 renal
[3] = system: NCI-H226 lung
[4] = system: CCRF-CEM leukemia
[5] = system: NCI-H522 lung
[6] = system: HCC-2998 colon
[7] = system: SF-295 CNS
[8] = system: HL-60(TB) leukemia
[9] = system: 786-0 renal
[10] = system: SR leukemia

Compound: CCCCn1c(-c2ccc([N+](=O)[O-])cc2)cs/c1=N/N=C1\C(=O)Nc2ccc(Br)cc21
- TGI [1]: 85.8 µM
- TGI [2]: 34.2 µM
- TGI [3]: 38.3 µM
- TGI [4]: > 100 µM
- TGI [5]: 36.7 µM
- TGI [6]: 34.7 µM
- TGI [7]: 61.2 µM
- TGI [8]: 85.9 µM
- TGI [9]: 29.8 µM

Compound: COc1ccc(NC(=S)NC(=O)c2ccc3c(c2)Sc2ccccc2O3)c([N+](=O)[O-])c1
- TGI [1]: > 100 µM
- TGI [2]: 57.4 µM
- TGI [10]: > 100 µM
- TGI [3]: > 100 µM
- TGI [4]: > 100 µM
- TGI [5]: 35.3 µM
- TGI [7]: > 100 µM
- TGI [8]: 82.1 µM
- TGI [9]: 56.5 µM

Compound: COc1ccc(COCC[C@H](C)OC2OC(CO[Si](C)(C)C(C)(C)C)C(OC(=O)CCCN=[N+]=[N-])C(OC(=O)CCCN=[N+]=[N-])C2OC(=O)CCCN=[N+]=[N-])cc1 (stereo partly specified)
- TGI [1]: > 100 µM
- TGI [2]: 66.2 µM
- TGI [3]: 89.2 µM
- TGI [4]: > 100 µM
- TGI [5]: > 100 µM
- TGI [6]: > 100 µM
- TGI [7]: > 100 µM
- TGI [8]: 41.5 µM
- TGI [9]: > 100 µM

Compound: C\C(=N/N=C1/C(=C\N(C)C)C(=O)NC(=O)N1C)c1ccc(Cl)cc1
- TGI [1]: > 100 µM
- TGI [2]: > 100 µM
- TGI [3]: > 100 µM
- TGI [4]: > 100 µM
- TGI [5]: > 100 µM
- TGI [6]: > 100 µM
- TGI [7]: > 100 µM
- TGI [9]: > 100 µM

Compound: CCON1CC(C(=O)OC)=C(O)C1=O
- TGI [1]: > 100 µM
- TGI [2]: > 100 µM
- TGI [5]: > 100 µM
- TGI [6]: > 100 µM
- TGI [7]: > 100 µM
- TGI [9]: > 100 µM

Compound: O=c1[nH]c(=O)n(C2CC(O)C(CO)O2)cc1OCc1ccccc1 (stereo unspecified)
- TGI [1]: > 100 µM
- TGI [2]: > 100 µM
- TGI [10]: > 100 µM
- TGI [3]: > 100 µM
- TGI [4]: > 100 µM
- TGI [5]: > 100 µM
- TGI [8]: > 100 µM
- TGI [9]: > 100 µM

Compound: CCOC(=O)/C(O)=C1\C(=O)N(C)C(=O)C1c1cccc(OC)c1 (stereo unspecified)
- TGI [1]: > 100 µM
- TGI [2]: > 100 µM
- TGI [3]: > 100 µM
- TGI [4]: > 100 µM
- TGI [5]: > 100 µM
- TGI [6]: > 100 µM
- TGI [7]: > 100 µM
- TGI [8]: > 100 µM

Compound: CN(C)CCNC(=O)c1cccc2nc(-c3ccccc3)oc12
- TGI [1]: > 100 µM
- TGI [2]: 45.1 µM
- TGI [3]: 84 µM
- TGI [4]: > 100 µM
- TGI [6]: > 100 µM
- TGI [7]: > 100 µM
- TGI [8]: 96.2 µM

Compound: CCCSc1nc(-c2ccc(OC)cc2)c(C#N)c(=O)n1C1OC(COC(C)=O)C(OC(C)=O)C(OC(C)=O)C1OC(C)=O (stereo unspecified)
- GI50 [2]: > 100 µM and 36.9 µM
- TGI [2]: > 100 µM
- TGI [10]: > 100 µM
- TGI [4]: > 100 µM
- TGI [5]: > 100 µM
- GI50 [7]: > 100 µM and 24.3 µM
- TGI [7]: > 100 µM and 92.6 µM
- TGI [8]: > 100 µM

Compound: C[C@H]1SC(c2ccc(Cl)cc2Cl)N(NC(=O)c2ccncc2)C1=O (stereo partly specified)
- TGI [2]: 96.1 µM
- TGI [10]: > 100 µM
- TGI [3]: 76.6 µM
- TGI [4]: > 100 µM
- TGI [5]: 60.5 µM
- TGI [7]: > 100 µM
- TGI [8]: > 100 µM

Compound: CC(=O)OC1C(COC(=O)c2ccccc2)OC(Nc2ncc(-c3ccc(Br)cc3)s2)C(OC(=O)c2ccccc2)C1OC(=O)c1ccccc1 (stereo unspecified)
- TGI [1]: > 100 µM
- TGI [2]: > 100 µM
- TGI [10]: > 100 µM
- TGI [3]: > 100 µM
- TGI [5]: > 100 µM
- TGI [7]: > 100 µM
- TGI [9]: > 100 µM

Compound: CCOC(=O)c1nnsc1NN
- TGI [1]: > 100 µM
- TGI [2]: > 100 µM
- TGI [3]: > 100 µM
- TGI [4]: > 100 µM
- TGI [5]: > 100 µM
- TGI [6]: > 100 µM
- TGI [7]: > 100 µM
- TGI [8]: > 100 µM
- TGI [9]: > 100 µM

Compound: Cc1c2c(OCC3CCCCO3)nn(C)c(=O)c2c(C)n1-c1ccccc1 (stereo unspecified)
- TGI [1]: 33.7 µM
- TGI [2]: 31.2 µM
- TGI [3]: 42.7 µM
- TGI [5]: 34.9 µM
- TGI [6]: 29.4 µM
- TGI [7]: 31.4 µM
- TGI [9]: 33.9 µM

Compound: NS(=O)(=O)c1cccc(NC(=S)NC(=O)Nc2ccc(Cl)c(Cl)c2)c1
- TGI [1]: 61.4 µM
- TGI [2]: 37.8 µM
- TGI [4]: 78.1 µM
- TGI [5]: 28.6 µM
- TGI [7]: 44.7 µM
- TGI [9]: 30.3 µM

Compound: CC12CCCC3(CC(=O)C(C)(C)C3C(=O)C1)C2 (stereo unspecified)
- TGI [1]: > 100 µM
- TGI [2]: > 100 µM
- TGI [10]: > 100 µM
- TGI [3]: > 100 µM
- TGI [4]: > 100 µM
- TGI [5]: > 100 µM
- TGI [7]: > 100 µM
- TGI [8]: > 100 µM
- TGI [9]: > 100 µM

Compound: CCCCCCCCCc1nn2c(Cc3ccccc3)nnc2s1
- TGI [1]: 41.5 µM
- TGI [2]: 25.8 µM
- TGI [5]: 27 µM
- TGI [7]: 45.6 µM
- TGI [9]: 34.7 µM

Compound: S=c1cc(-c2ccc3c(c2)OCO3)s[nH]1
- TGI [1]: > 100 µM
- TGI [2]: > 100 µM
- TGI [10]: > 100 µM
- TGI [3]: > 100 µM
- TGI [4]: > 100 µM
- TGI [5]: 54.6 µM
- TGI [7]: > 100 µM
- TGI [8]: > 100 µM
- TGI [9]: > 100 µM

Compound: CCOP(=O)(/C=C\n1ccc(N)nc1=O)OCC
- TGI [1]: > 100 µM
- TGI [3]: > 100 µM
- TGI [4]: > 100 µM
- TGI [5]: > 100 µM
- TGI [7]: > 100 µM
- TGI [8]: > 100 µM
- TGI [9]: > 100 µM

Compound: N#Cc1nc(NC(=O)c2ccccc2C(=O)O)c(C#N)[nH]1
- TGI [1]: > 100 µM
- TGI [2]: > 100 µM
- TGI [3]: > 100 µM
- TGI [4]: > 100 µM
- TGI [5]: > 100 µM
- TGI [7]: > 100 µM
- TGI [8]: > 100 µM
- TGI [9]: > 100 µM

Compound: COc1cc(NC(C)=O)ccc1C(=O)NN1C(=O)/C(=C/c2ccco2)N=C1c1ccccc1
- TGI [1]: > 50 µM
- TGI [2]: > 50 µM
- TGI [10]: > 50 µM
- TGI [4]: 31.1 µM
- TGI [5]: > 50 µM
- TGI [7]: > 50 µM
- TGI [8]: > 50 µM
- TGI [9]: > 50 µM

Compound: COc1nc(C#CC(C)(C)C)nc(OC)n1
- TGI [1]: > 100 µM
- TGI [2]: > 100 µM
- TGI [10]: 79.3 µM
- TGI [5]: 49.3 µM
- TGI [7]: > 100 µM
- TGI [8]: > 100 µM
- TGI [9]: > 100 µM
